Experimental findings from patent US11345666B2, “Phenyl and pyridinyl substituted imidazoles as modulators of RORγT” (Janssen Pharmaceutica NV, priority 2018, dated 2022) are described below.

The structures appear in SMILES notation. Like-named read-outs stand apart in the source and are kept apart here. Marks after values point to notes of the source that are not given here.

Assay [1] has as its target human RORγt ligand binding domain (RORγt LBD) (Homo sapiens (Human), UniProt P51449). Kind of assay: RORγt ThermoFluor assay. An outline of the steps:
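Thermal shift of His-tagged human RORγt LBD (0.065 mg/mL) with 60 μM 1,8-ANS in 100 mM Hepes pH 7.0, 10 mM NaCl, 2.5 mM GSH, 0.002% Tween-20, heated at 1° C./min. Compounds in 1:2 series from a 10 mM DMSO stock; KD estimated from ΔTm using protein unfolding thermodynamics.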

In assay [2] the target is full-length human RORγt (Homo sapiens (Human), UniProt P51449). The assay is described as follows: RORγt (full-length human) reporter assay, conditions A or B. The assay is classed as cell-based. The settings on record: for IC50: HEK293T cells, read-out: RORγt (FL) Reporter Assay A or B, IC50; for inhibition at 6 µM: read-out: RORγt (FL) Reporter Assay A or B, % inhibition @ 6 μM, 6 μM compound concentration; for inhibition at 0.22 µM: 0.22 μM compound concentration (******); for inhibition at 0.67 µM: 0.67 μM compound concentration (****). The essentials: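 HEK293T cells transiently co-transfected (PEI) with GAL4-DBD–RORγt, GAL4-firefly luciferase and CMV-Renilla reporters; condition A 35,000 cells/well, 170.5 ng DNA/well; condition B 8750 cells/well, 42.6 ng DNA/well.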

Setting [3] is: 2 μM compound concentration (**), read-out: RORγt (FL) Reporter Assay A or B, % inhibition.
The mark [4] stands for this setting: read-out: RORγt (FL) Reporter Assay A or B, % inhibition.
[5] abbreviates: 3 μM compound concentration (*), read-out: RORγt (FL) Reporter Assay A or B, % inhibition.

full-length human RORγt, sequence (P51449 other isoform, or with tags, fused parts or gaps): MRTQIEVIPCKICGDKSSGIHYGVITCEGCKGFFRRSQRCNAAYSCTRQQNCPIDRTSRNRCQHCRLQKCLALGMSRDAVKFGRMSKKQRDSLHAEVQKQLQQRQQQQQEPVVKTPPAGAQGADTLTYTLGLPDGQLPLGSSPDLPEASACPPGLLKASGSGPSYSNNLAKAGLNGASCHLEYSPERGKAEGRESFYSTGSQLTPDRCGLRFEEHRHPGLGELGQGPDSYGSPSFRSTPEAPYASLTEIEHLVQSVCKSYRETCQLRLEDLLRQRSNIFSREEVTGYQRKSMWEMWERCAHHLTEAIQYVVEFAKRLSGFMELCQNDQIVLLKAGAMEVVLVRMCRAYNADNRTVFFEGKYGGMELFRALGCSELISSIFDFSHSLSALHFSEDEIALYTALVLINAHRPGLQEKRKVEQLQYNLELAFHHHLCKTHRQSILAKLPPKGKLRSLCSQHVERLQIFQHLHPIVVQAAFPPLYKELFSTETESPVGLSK
human RORγt ligand binding domain (RORγt LBD), sequence (P51449 other isoform, or with tags, fused parts or gaps): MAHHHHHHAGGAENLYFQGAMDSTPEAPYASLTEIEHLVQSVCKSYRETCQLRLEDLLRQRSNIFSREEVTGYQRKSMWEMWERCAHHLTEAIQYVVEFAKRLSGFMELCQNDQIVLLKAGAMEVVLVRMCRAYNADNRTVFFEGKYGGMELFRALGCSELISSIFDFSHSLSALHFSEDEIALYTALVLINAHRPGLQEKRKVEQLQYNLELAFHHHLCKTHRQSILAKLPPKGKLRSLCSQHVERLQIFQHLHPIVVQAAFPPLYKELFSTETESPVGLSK

`CCc1nc(C(=O)NC[C@H]2CC[C@H](S(=O)(=O)N(C)C)CC2)c(Cl)n1-c1ncc(CC(C)(C)C(F)(F)F)cc1OC(F)F` [Example 70, 5-Chloro-1-(3-(difluoromethoxy)-5-(3,3,3-trifluoro-2,2-dimethylpropyl)pyridin-2-yl)-N-(((1r,4r)-4-(N,N-dimethylsulfamoyl)cyclohexyl)methyl)-2-ethyl-1H-imidazole-4-carboxamide] displayed a Kd in assay [1] of 320 nM. For the same molecule, the “RORγt (FL) Reporter Assay A or B, % inhibition” value in assay [2] (3 μM compound concentration (*)) is recorded as 88* %. Besides, the IC50 in assay [2] amounted to 350 nM.
Turning to `CCc1nc(C(=O)NC[C@H]2CC[C@H](S(C)(=O)=O)CC2)c(C#N)n1-c1ccc(CCC(F)(F)F)cc1OC(F)F` [Example 26, 5-Cyano-1-(2-(difluoromethoxy)-4-(3,3,3-trifluoropropyl)phenyl)-2-ethyl-N-(((1r,4r)-4-(methylsulfonyl)cyclohexyl)methyl)-1H-imidazole-4-carboxamide], in assay [1], the Kd was 24 nM. In assay [2], the IC50 was 54 nM and the inhibition at 6 µM is 96%.
For the molecule `CCc1nc(C(=O)NC[C@H]2CC[C@@H](S(C)(=O)=O)CC2)c(Cl)n1-c1ccc(N[C@H](C)C(F)(F)F)cc1OC` [Example 4, 5-Chloro-2-ethyl-1-(2-methoxy-4-(((R)-1,1,1-trifluoropropan-2-yl)amino)phenyl)-N-(((1s,4S)-4-(methylsulfonyl)cyclohexyl)methyl)-1H-imidazole-4-carboxamide], in assay [1], binding was characterised by a dissociation constant (Kd) of 470 nM. Further, the inhibition at 2 µM in assay [2] (setting [3]) came out at 87%. Moreover, the IC50 in assay [2] was 350 nM.
With `CCc1nc(C(=O)NC[C@H]2CC[C@H](S(C)(=O)=O)CC2)c(Cl)n1-c1ccc(CC(C(F)(F)F)C(F)(F)F)cc1F` [Example 99, 5-Chloro-2-ethyl-1-(2-fluoro-4-(3,3,3-trifluoro-2-(trifluoromethyl)propyl)phenyl)-N-(((1r,4r)-4-(methylsulfonyl)cyclohexyl)methyl)-1H-imidazole-4-carboxamide], in assay [1], the affinity, expressed as Kd, was 4 nM. In addition, in assay [2] (setting [4]), the inhibition at 0.22 µM stood at 99%. Also, the IC50 in assay [2] worked out at 16 nM.
Consider `CCc1nc(C(=O)NC[C@]2(O)CC[C@@H](S(C)(=O)=O)CC2)c(Cl)n1-c1ccc(CCC(F)(F)F)cc1F` [Example 23, 5-Chloro-2-ethyl-1-(2-fluoro-4-(3,3,3-trifluoropropyl)phenyl)-N-(((1s,4s)-1-hydroxy-4-(methylsulfonyl)cyclohexyl)methyl)-1H-imidazole-4-carboxamide], for which, in assay [1], the Kd is 49 nM. In assay [2], the IC50 came out at 37 nM and the inhibition at 6 µM was 41%.
As for `CCc1nc(C(=O)NC[C@]2(O)CC[C@@H](S(C)(=O)=O)CC2)c(Cl)n1-c1ccc(CC(C)C)cc1OC` [Example 90, 5-Chloro-2-ethyl-N-(((1s,4s)-1-hydroxy-4-(methylsulfonyl)cyclohexyl)methyl)-1-(4-isobutyl-2-methoxyphenyl)-1H-imidazole-4-carboxamide], the Kd in assay [1] was found to be 0.31 nM. Besides, the inhibition at 2 µM in assay [2] (setting [3]) worked out at 67%. The IC50 in assay [2] turned out to be 21 nM.
The corresponding values for `C#Cc1c(C(=O)NC[C@]2(O)CC[C@@H](S(C)(=O)=O)CC2)nc(CC)n1-c1ccc(CC(C)(C)C(F)(F)F)cc1OC(F)F` [Example 40, 1-(2-(Difluoromethoxy)-4-(3,3,3-trifluoro-2,2-dimethylpropyl)phenyl)-2-ethyl-5-ethynyl-N-(((1s,4s)-1-hydroxy-4-(methylsulfonyl)cyclohexyl)methyl)-1H-imidazole-4-carboxamide] are 0.73 nM, 105% and 3.2 nM.
With `CCc1nc(C(=O)NC[C@H]2CC[C@H](S(C)(=O)=O)CC2)cn1-c1c(F)cc(CC(C)C)cc1F` [Example 82, 1-(2,6-Difluoro-4-isobutylphenyl)-2-ethyl-N-(((1r,4r)-4-(methylsulfonyl)cyclohexyl)methyl)-1H-imidazole-4-carboxamide], the Kd in assay [1] worked out at 150 nM. For the same molecule, the inhibition at 2 µM in assay [2] (setting [3]) amounted to 44%. Moreover, in assay [2], the IC50 was 370 nM.
On to `CCc1nc(C(=O)NC[C@]2(O)CC[C@@H](S(C)(=O)=O)CC2)c(Cl)n1-c1ccc(CC(C)C)cc1OC` (single isomer, unassigned) [Example 91, 5-Chloro-2-ethyl-N-(((1s,4S)-1-hydroxy-4-(methylsulfonyl)cyclohexyl)methyl)-1-((S*)-4-isobutyl-2-methoxyphenyl)-1H-imidazole-4-carboxamide], for which the Kd in assay [1] worked out at 620 nM. Also, in assay [2], the concentration for half-maximal inhibition (IC50) came out at 360 nM. Further, the inhibition at 2 µM in assay [2] (read-out: RORγt (FL) Reporter Assay A or B, % inhibition, 2 μM compound concentration (**)) came to 42%.
For `CCc1nc(C(=O)NC[C@H]2CC[C@H](S(C)(=O)=O)CC2)c(Cl)n1-c1ccc(CCCC(F)(F)F)cc1F` [Example 97, 5-Chloro-2-ethyl-1-(2-fluoro-4-(4,4,4-trifluorobutyl)phenyl)-N-(((1r,4r)-4-(methylsulfonyl)cyclohexyl)methyl)-1H-imidazole-4-carboxamide], the Kd in assay [1] worked out at 14 nM. For the same molecule, the inhibition at 0.67 µM in assay [2] (setting [4]) was determined as 53%. The IC50 in assay [2] was 22 nM.
Molecule `COc1cc(N[C@H](C)C(F)(F)F)ccc1-n1c(C(C)(C)C)nc(C(=O)NC[C@H]2CC[C@H](S(C)(=O)=O)CC2)c1Cl` [Example 10, 2-(tert-Butyl)-5-chloro-1-(2-methoxy-4-(((R)-1,1,1-trifluoropropan-2-yl)amino)phenyl)-N-(((1r,4R)-4-(methylsulfonyl)cyclohexyl)methyl)-1H-imidazole-4-carboxamide] yielded a Kd in assay [1] of 6.1 nM. In addition, the inhibition at 2 µM in assay [2] (setting [3]) worked out at 104%. Also, in assay [2], the IC50 amounted to 57 nM.
In assay [1], `CCc1nc(C(=O)NC[C@]2(O)CC[C@@H](S(C)(=O)=O)CC2)c(Cl)n1-c1c(F)cc(CC(C)C(F)(F)F)cc1F` (stereo partly drawn) [Example 88, 5-Chloro-1-(2,6-difluoro-4-(3,3,3-trifluoro-2-methylpropyl)phenyl)-2-ethyl-N-(((1s,4s)-1-hydroxy-4-(methylsulfonyl)cyclohexyl)methyl)-1H-imidazole-4-carboxamide] returned a Kd of 17 nM. For the same molecule, the inhibition at 0.67 µM in assay [2] (setting [4]) worked out at 67%. In addition, in assay [2], the IC50 is 46 nM.
Take `Cc1nc(C(=O)NC[C@@H]2CC[C@@H](S(C)(=O)=O)C[C@H]2O)c(C#N)n1-c1ccc(CC(C)(C)C(F)(F)F)cc1OC(F)F` (racemic) [Example 55, 5-Cyano-1-(2-(difluoromethoxy)-4-(3,3,3-trifluoro-2,2-dimethylpropyl)phenyl)-N-(((1RS,2SR,4SR)-2-hydroxy-4-(methylsulfonyl)cyclohexyl)methyl)-2-methyl-1H-imidazole-4-carboxamide]: the Kd in assay [1] turned out to be 20 nM. In assay [2] (setting [5]), the inhibition at 3 µM amounted to 93%. Further, the 50% inhibitory concentration (IC50) in assay [2] was 66 nM.
`CCc1nc(C(=O)NC[C@H]2CC[C@H](S(C)(=O)=O)CC2)c(Cl)n1-c1ncc(C[C@H](C)C(F)(F)F)cc1OC(F)F` (single isomer, unassigned) [Example 72, 5-Chloro-1-(3-(difluoromethoxy)-5-((S*)-3,3,3-trifluoro-2-methylpropyl)pyridin-2-yl)-2-ethyl-N-(((1r,4S)-4-(methylsulfonyl)cyclohexyl)methyl)-1H-imidazole-4-carboxamide] registered a Kd in assay [1] of 9.8 nM. The inhibition at 3 µM in assay [2] (setting [5]) is 98%. Also, the concentration for half-maximal inhibition (IC50) in assay [2] was 75 nM.
`CCc1nc(C(=O)NC[C@H]2CC[C@H](S(C)(=O)=O)CC2)c(C)n1-c1ccc(CC(C)(C)C(F)(F)F)c(OC)c1` [Example 44, 2-Ethyl-1-(3-methoxy-4-(3,3,3-trifluoro-2,2-dimethylpropyl)phenyl)-5-methyl-N-(((1r,4r)-4-(methylsulfonyl)cyclohexyl)methyl)-1H-imidazole-4-carboxamide] had a Kd in assay [1] of 4.1 nM. Moreover, in assay [2] (setting [4]), the inhibition at 0.22 µM came to 75%. The IC50 in assay [2] turned out to be 31 nM.
The corresponding values for `COc1cc(CC(C)(C)C(F)(F)F)ccc1-n1cc(C(=O)NC[C@H]2CC[C@H](S(C)(=O)=O)CC2)nc1C` [Example 129, 1-(2-Methoxy-4-(3,3,3-trifluoro-2,2-dimethylpropyl)phenyl)-2-methyl-N-(((1r,4r)-4-(methylsulfonyl)cyclohexyl)methyl)-1H-imidazole-4-carboxamide] are 45 nM, 47% and 130 nM.
Molecule `CCc1nc(C(=O)NC[C@]2(O)CC[C@@H](S(C)(=O)=O)CC2)c(C#N)n1-c1ncc(CC(C)(C)C(F)(F)F)cc1OC` [Example 123, 5-Cyano-2-ethyl-N-(((1s,4s)-1-hydroxy-4-(methylsulfonyl)cyclohexyl)methyl)-1-(3-methoxy-5-(3,3,3-trifluoro-2,2-dimethylpropyl)pyridin-2-yl)-1H-imidazole-4-carboxamide] displayed a Kd in assay [1] of 31 nM. In assay [2], the IC50 was 240 nM and the inhibition at 6 µM worked out at 102%.
The molecule `CCc1nc(C(=O)NC[C@]2(O)CC[C@@H](S(C)(=O)=O)CC2)c(C(N)=O)n1-c1ccc(CCC(F)(F)F)cc1F` [Example 96, 2-Ethyl-1-(2-fluoro-4-(3,3,3-trifluoropropyl)phenyl)-N-(((1s,4s)-1-hydroxy-4-(methylsulfonyl)cyclohexyl)methyl)-1H-imidazole-4,5-dicarboxamide] yielded a Kd in assay [1] of 450 nM. In addition, in assay [2], the half-maximal inhibitory concentration (IC50) came out at 1400 nM and the inhibition at 6 µM was 75%.

As a reminder, the Kd is a measure of binding affinity in units of concentration. A high value points to weaker binding. In general, IC50 refers to the point on the concentration scale where inhibition reaches its midpoint.
